This passage reports TGI and GI50 results from PubChem BioAssay (NCI).

Several values for one entry are separate records, joined by “and”; a condition that tells them apart may be missing. Equal entries are not always repeated.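 Method: 48-hour compound exposure of cells in 96-well plates, five concentrations, linear interpolation of endpoints. Here, GI50 denotes the concentration required for 50% inhibition of growth. The concentration for full growth arrest is given as TGI.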

Among the test systems are HCC-2998 colon; NCI/ADR-RES ovarian; NCI-H226 lung; 786-0 renal; MALME-3M melanoma; U251 CNS; TK-10 renal; A549 NSCLC; MDA-MB-231 breast; OVCAR-3 ovarian.
Assay in all cases: NCI anticancer screen, dose series, 48 h

In the case of `COc1ccccc1/C=C1\CCC(CN2CCOCC2)C1=O` (stereo not drawn), the TGI in the assay with HCC-2998 colon worked out at 28300 nM; in the assay with NCI/ADR-RES ovarian it was 35800 nM; in the assay with NCI-H226 lung, 31800 nM; in the assay on 786-0 renal it was 8530 nM; in the assay on MALME-3M melanoma, 23700 nM; in the assay on U251 CNS it was 34200 nM. The TGI was determined as 12500 nM with TK-10 renal, 45000 nM in the assay on A549 NSCLC, 11500 nM in the assay with MDA-MB-231 breast and 15200 nM with OVCAR-3 ovarian.

In the case of `COc1ccc(C2CC(c3ccc4ccccc4c3)=NN2c2nc(O)c(C3=c4cc(Cl)ccc4=NC3=O)s2)cc1` (stereo not drawn), the GI50 is 21.6 nM and < 5 nM with HCC-2998 colon; 92.3 nM with NCI/ADR-RES ovarian; 20.8 nM in the assay on NCI-H226 lung; 23.1 nM and < 5 nM in the assay with 786-0 renal; 18.2 nM and < 5 nM with MALME-3M melanoma; 19.9 nM and < 5 nM in the assay on U251 CNS. For the same molecule, the GI50 in the assay on TK-10 renal was 19.5 nM and < 5 nM; in the assay on A549 NSCLC, 25.1 nM and < 5 nM; in the assay on MDA-MB-231 breast it was 21 nM; in the assay on OVCAR-3 ovarian, 20.2 nM and < 5 nM. In addition, the TGI was 50000 nM with NCI/ADR-RES ovarian; 52 nM in the assay with NCI-H226 lung; 36.3 nM and < 5 nM in the assay with MALME-3M melanoma; 41.4 nM and < 5 nM with U251 CNS; 46.2 nM with MDA-MB-231 breast; 39.6 nM and < 5 nM in the assay on OVCAR-3 ovarian.

For `CCc1c2c(nc3ccc(OC(=O)OCc4ccc(B5OC(C)(C)C(C)(C)O5)cc4)cc13)-c1cc3c(c(=O)n1C2)COC(=O)[C@]3(O)CC`, the GI50 is 66.1 nM in the assay with HCC-2998 colon; 27.3 nM in the assay with NCI/ADR-RES ovarian; 11 nM in the assay on NCI-H226 lung; less than 10 nM in the assay on 786-0 renal; 27.9 nM in the assay with MALME-3M melanoma; less than 10 nM in the assay on U251 CNS. Also, the GI50 was 880 nM in the assay on TK-10 renal, 55.6 nM in the assay with A549 NSCLC, 892 nM in the assay with MDA-MB-231 breast and 71.6 nM with OVCAR-3 ovarian. The TGI was 3860 nM in the assay on HCC-2998 colon; greater than 100000 nM in the assay with NCI/ADR-RES ovarian; 157 nM with NCI-H226 lung; 289 nM in the assay on 786-0 renal; 637 nM in the assay on MALME-3M melanoma; greater than 34300 nM in the assay with U251 CNS. For the same molecule, the TGI with TK-10 renal was greater than 100000 nM; with A549 NSCLC, 5450 nM; in the assay on MDA-MB-231 breast, 43700 nM; in the assay with OVCAR-3 ovarian, 1460 nM.

On to `Oc1ccccc1/C=N\Nc1ccccc1`, for which the GI50 in the assay with HCC-2998 colon was 3450 nM; with NCI/ADR-RES ovarian, 3200 nM; with NCI-H226 lung it was 3130 nM; in the assay with 786-0 renal it was 2700 nM; in the assay on MALME-3M melanoma it was 3720 nM; in the assay with U251 CNS, 10200 nM. Moreover, the GI50 was 24900 nM in the assay with TK-10 renal, 3940 nM in the assay on A549 NSCLC, 553 nM in the assay with MDA-MB-231 breast and 10400 nM in the assay on OVCAR-3 ovarian. The TGI was 15500 nM in the assay on HCC-2998 colon; 88500 nM in the assay with NCI/ADR-RES ovarian; 31400 nM in the assay with NCI-H226 lung; 16600 nM with 786-0 renal; 21700 nM in the assay with MALME-3M melanoma; 65600 nM in the assay with U251 CNS. The TGI in the assay on TK-10 renal is greater than 100000 nM; in the assay with A549 NSCLC it was greater than 100000 nM; with MDA-MB-231 breast it was 22700 nM; with OVCAR-3 ovarian, greater than 100000 nM.

With `CCCn1cc(/C=N\N=C2\C(=O)Nc3ccc(C)cc32)c2ccccc21`, the GI50 in the assay on HCC-2998 colon is 2090 nM; with NCI/ADR-RES ovarian it was 6390 nM; in the assay with NCI-H226 lung it was 2950 nM; in the assay on 786-0 renal, 5940 nM; in the assay with MALME-3M melanoma, 1880 nM; with U251 CNS, 3510 nM. The GI50 with TK-10 renal was 11100 nM; in the assay with A549 NSCLC, 7180 nM; with MDA-MB-231 breast, 1810 nM; in the assay with OVCAR-3 ovarian it was 1360 nM. For the same molecule, the TGI with HCC-2998 colon was found to be 5140 nM; in the assay on NCI/ADR-RES ovarian, 89900 nM; with NCI-H226 lung, 20600 nM; with 786-0 renal it was 71200 nM; in the assay on MALME-3M melanoma it was 6030 nM; with U251 CNS, 17300 nM. In addition, the TGI in the assay on TK-10 renal was greater than 100000 nM; in the assay with A549 NSCLC it was 39600 nM; with MDA-MB-231 breast it was 7400 nM; with OVCAR-3 ovarian, 5110 nM.

In the case of `CN(C)C[C@@H]1CCn2cc(c3ccccc32)C2=C(C(=O)NC2=O)c2cn(c3ccccc23)CCO1`, the GI50 in the assay on HCC-2998 colon is 713 nM; with NCI/ADR-RES ovarian it was 2580 nM; with NCI-H226 lung it was 2000 nM; in the assay with 786-0 renal, 1780 nM; in the assay on MALME-3M melanoma, 1170 nM; in the assay with U251 CNS, 1900 nM. The GI50 is 2220 nM in the assay with TK-10 renal, 2720 nM in the assay on A549 NSCLC, 1680 nM in the assay with MDA-MB-231 breast and 2650 nM with OVCAR-3 ovarian. For the same molecule, the TGI in the assay with HCC-2998 colon is greater than 10000 nM; with NCI/ADR-RES ovarian, greater than 10000 nM; in the assay with NCI-H226 lung it was greater than 10000 nM; in the assay on 786-0 renal, 3930 nM; with MALME-3M melanoma it was 5010 nM; in the assay on U251 CNS, greater than 10000 nM. Moreover, the TGI in the assay with TK-10 renal was greater than 10000 nM; in the assay on A549 NSCLC it was greater than 10000 nM; with MDA-MB-231 breast, 9490 nM; in the assay on OVCAR-3 ovarian it was greater than 10000 nM.

Consider `COc1ccc(Cl)cc1Nc1nc(C(F)(F)F)ccc1C(=O)N/N=C/c1ccccc1Cl`, for which the GI50 in the assay on HCC-2998 colon is 1970 nM; in the assay with NCI/ADR-RES ovarian it was 2830 nM; with NCI-H226 lung it was 1450 nM; in the assay with 786-0 renal, 4660 nM; in the assay on MALME-3M melanoma it was 1750 nM; in the assay with U251 CNS, 1570 nM. Besides, the GI50 is 442 nM in the assay with TK-10 renal, 3530 nM in the assay on A549 NSCLC, 2090 nM with MDA-MB-231 breast and 1040 nM with OVCAR-3 ovarian. For the same molecule, the TGI was 19200 nM in the assay on HCC-2998 colon; greater than 28400 nM in the assay on NCI/ADR-RES ovarian; 18200 nM with NCI-H226 lung; greater than 23000 nM in the assay with 786-0 renal; 9540 nM with MALME-3M melanoma; greater than 31000 nM in the assay on U251 CNS. Besides, the TGI with TK-10 renal is 4610 nM; in the assay on A549 NSCLC, 18500 nM; in the assay with MDA-MB-231 breast, 10900 nM; in the assay with OVCAR-3 ovarian, 3750 nM.

With `O=C1NC(c2cccc3ccccc23)Nc2ccccc21` (stereo not drawn), the GI50 was 173 nM in the assay on HCC-2998 colon; 23.8 nM in the assay with NCI-H226 lung; 25.4 nM in the assay on 786-0 renal; 26.3 nM with MALME-3M melanoma; 25.9 nM in the assay on U251 CNS; 54.5 nM in the assay on TK-10 renal. Besides, the GI50 in the assay on A549 NSCLC was 58.2 nM; with OVCAR-3 ovarian, 21.5 nM. The TGI in the assay on HCC-2998 colon is 743 nM and 489 nM; in the assay on NCI/ADR-RES ovarian it was 70.7 nM and 71.5 nM; in the assay on 786-0 renal, greater than 100000 nM; in the assay with MALME-3M melanoma, 43700 nM; in the assay on U251 CNS, 300 nM and 830 nM; in the assay on TK-10 renal, greater than 68000 nM. Also, the TGI in the assay with A549 NSCLC is greater than 100000 nM; in the assay on MDA-MB-231 breast, 3030 nM; in the assay with OVCAR-3 ovarian it was 56.8 nM and 44.2 nM.

On to `CCN(CC)CCOc1ccc(NC(=O)C(C(C)C)N2C(=O)/C(=C/c3ccc(Br)cc3)SC2=S)cc1` (stereo not drawn), for which the GI50 with HCC-2998 colon is 2210 nM; in the assay on NCI/ADR-RES ovarian it was 3930 nM; in the assay on NCI-H226 lung, 16200 nM; in the assay with 786-0 renal it was 1760 nM; in the assay with MALME-3M melanoma, 1710 nM; in the assay on U251 CNS it was 1940 nM. Further, the GI50 in the assay with TK-10 renal was 2170 nM; with A549 NSCLC it was 3370 nM; in the assay on MDA-MB-231 breast, 1850 nM; in the assay with OVCAR-3 ovarian, 1950 nM. Further, the TGI came out at 5130 nM in the assay with HCC-2998 colon; 14300 nM in the assay with NCI/ADR-RES ovarian; 37300 nM with NCI-H226 lung; 3220 nM in the assay on 786-0 renal; 3300 nM in the assay with MALME-3M melanoma; 4080 nM in the assay on U251 CNS. Moreover, the TGI in the assay with TK-10 renal was found to be 5090 nM; with A549 NSCLC, 12500 nM; with MDA-MB-231 breast it was 3670 nM; with OVCAR-3 ovarian it was 4080 nM.

Turning to `COc1cc(C(=O)c2cnc(-c3ccc4cc[nH]c4c3)[nH]2)cc(OC)c1OC`, the GI50 is 117 nM with HCC-2998 colon; 37.1 nM with NCI/ADR-RES ovarian; 117 nM in the assay on NCI-H226 lung; 41.9 nM with 786-0 renal; 1610 nM in the assay with MALME-3M melanoma; 39.3 nM in the assay on U251 CNS. For the same molecule, the GI50 with TK-10 renal is 340 nM; in the assay with A549 NSCLC it was 52.3 nM; with MDA-MB-231 breast, 60.9 nM; in the assay on OVCAR-3 ovarian it was 19.5 nM. The TGI in the assay with HCC-2998 colon was 4020 nM; in the assay with NCI/ADR-RES ovarian, 56000 nM; in the assay with NCI-H226 lung, 9000 nM; in the assay on 786-0 renal, 2340 nM; in the assay on MALME-3M melanoma it was 9890 nM; in the assay on U251 CNS it was 11000 nM. Moreover, the TGI in the assay on TK-10 renal worked out at 12400 nM; in the assay on A549 NSCLC, 11700 nM; in the assay with MDA-MB-231 breast, 1440 nM; with OVCAR-3 ovarian it was 47.7 nM.

Regarding `O=C(Nc1cccc(-n2ccc3c(NC(=O)c4ccccc4)nccc32)c1)c1ccc(Cl)c(Cl)c1`, the GI50 is 286 nM in the assay on HCC-2998 colon; 86.5 nM with NCI/ADR-RES ovarian; 568 nM in the assay on NCI-H226 lung; 242 nM in the assay on 786-0 renal; 242 nM with MALME-3M melanoma; 87.5 nM in the assay on U251 CNS. The GI50 in the assay on TK-10 renal was 865 nM; in the assay with A549 NSCLC it was 136 nM; with MDA-MB-231 breast it was 302 nM; with OVCAR-3 ovarian, 41.3 nM. The TGI with HCC-2998 colon was 1270 nM; with NCI/ADR-RES ovarian it was 380 nM; with NCI-H226 lung, 3650 nM; in the assay with 786-0 renal it was 1590 nM; in the assay with MALME-3M melanoma, 2270 nM; in the assay with U251 CNS it was 1600 nM. In addition, the TGI in the assay with TK-10 renal turned out to be 2280 nM; in the assay on A549 NSCLC, 1710 nM; with MDA-MB-231 breast, 1340 nM; in the assay on OVCAR-3 ovarian, 162 nM.
